Reference: patent US20240358865A1, “QUINOLINYL AND PRIDINYL CONTAINING COMPOUNDS TARGETING ON ALPHA-SYNUCLEIN FOR NEUROLOGICAL DISEASES” (Washington University, priority 2023, published 2024)
Entries after “also recorded” stand apart in the source; their conditions may differ.

What was measured:
[1] = biological target: AD brain tissue (Homo sapiens, UniProt P05067); assay: Competitive binding in AD brain tissue vs [3H]PiB; conditions: for Ki: AD brain tissue, radioligand [3H]PiB; for max % Inh_PiB: maximal inhibition of [3H]PiB binding in AD brain tissue
Procedure: The binding potency for Abeta was determined using [^3H]PIB for these new compounds (FIG. 5B).
If the Ki value is smaller, these compounds are potent for AD brain tissue binding and are not selective for alpha-synuclein over abeta, or PD over AD.

[2] = biological target: alpha-synuclein fibrils (Homo sapiens, UniProt P37840); assay: Competitive binding to alpha-synuclein fibrils vs [3H]BF2846 (site 9); conditions: for Ki / Ki (nM), in a-syn fibrils v.s. [3H]BF2846: alpha-synuclein fibrils, radioligand [3H]BF2846, binding site 9; for Ki: read-out: Ki (nM), in a-syn fibrils v.s. [3H]BF2846; for max % inh_site9: maximal inhibition of [3H]BF2846 binding to alpha-synuclein fibrils
[3] = MicroPET imaging of the macaque (NHP) brain; format: in vivo; conditions: for crossing of the blood brain barrier: NHP; for brain standardized uptake value (SUV) maximum: NHP brain, intravenous; for brain standardized uptake value (SUV) maximum / washout from the NHP brain: microPET
Text: (§1) The radiosynthesis of [^18F]TZ83-41 was accomplished by a two-step procedure with [^18F]fluoroethyl ptoluenesulfonate as a prosthetic group, followed by O-alkylation to the quinolinyl-containing phenol group. [^18F]TZ80-156 was synthesized starting from the allylic bromide precursor via nucleophilic halogen exchange (halex) reaction with [^18F]fluoride, followed by deprotection of the N-Boc amine with trifluoroacetic acid. Homologous competitive binding assays with α-synuclein fibrils amplified from PD tissue were used to determine the direct binding affinity of the two radioligands. The biodistribution study was performed in male Sprague Dawley (SD) rats at four time points (5, 30, 60 min and 120 min) after intravenous injection of the radiotracer. The uptake of radioactivity was calculated as percentage injected dose per gram (% ID/gram). Both radiotracers were evaluated with microPET imaging using a Focus 220 microPET scanner to collect dynamic scans after intravenous injection into male macaques (NHP) (FIGS. 1A-1C).

[4] = Biodistribution study in rats; format: in vivo, Sprague Dawley (SD) rats
Text: as §1

[5] = test system: Alzheimer's disease brain tissue homogenate; assay: Direct radioligand binding to Alzheimer's disease brain tissue homogenate
Text: (§2) The radioligands [^18F]TZ83-41 and [^18F]TZ80-156 were successfully produced in 17±3% (n=2) and 25±5% (n=2) radiochemical yield (RCY) respectively with high molar activity (>37 GBq/μmol) and high radiochemical purity (>99%), at the end of synthesis (EOS).

[6] = biological target: T1, α-synuclein fibrils amplified from PD tissue (Homo sapiens, UniProt P37840); assay: Direct radioligand (homologous competitive) binding assay; conditions: read-out: binding affinity for α-synuclein fibrils
T1 construct: from tissue; host or cells: fibrils amplified from PD tissue (Banner amplified fibrils are mentioned)
Text: as §1, §2

[7] = PET studies in the brains of nonhuman primates (Example 3); format: in vivo
Text: A PET study in nonhuman primates found uptake of [^11C]TZ61-84 (FIG. 3C).
Another PET study of [^18F]TZ80-156 and [^18F]TZ83-41 in nonhuman primates also found uptake (FIG. 4A).
A further PET study also found uptake of several additional compounds, including [^18F]TZ80-156 and [^18F]TZ83-41 (FIG. 4B).

[8] = NHP plasma radiometabolite study (column-switching HPLC); format: in vivo, Monkey; conditions: for Peak B (%) (parental tracer): monkey plasma
Text: Monkey arterial/venous blood samples were collected at various intervals during the PET scans to measure the radio metabolite profile using the column-switching HPLC system equipped with an Oasis HLB online capture column (80 Å, 15 μm, 3.9 mm×20 mm, Waters 186001414) with Universal Guard Column holder (WAT046910, Waters) and a Agilent ZORBAX Eclipse XDB-C18 analytical column (5 μm, 250×4.6 mm, Part No. 990967-902), following a published protocol (Hilton J, et al., Nucl Med Biol. 2000 August; 27(6):627-30; Cai Z, et al., ACS Chem Neurosci. 2020 Feb. 19; 11(4):592-603).
Briefly, blood samples (vary with volume, 4-8 mL) were collected at 5, 15, 30, 60, 90 min post-injection of radiotracer. The whole blood was centrifuged at RCF 1300 g for 5 min to separate the blood cells and obtain plasma. Clean supernatant plasma was collected and added into solid urea to eliminate competitive protein binding and to allow complete backflush of the parent compound and metabolites from the capture column to analytical column. Typically, 3.2 mL of plasma is added to 2.12 g of urea to yield a final concentration of 8 M urea and a final volume of about 4.5 mL. The plasma-urea mix was then filtered through a Whatman® GD/X syringe filters (pore size 1 μm, diam. 13 mm, WHA68841310, Sigma, USA) and injected into a 5 mL HPLC loop concatenating with the capture column, which eluted with 1% acetonitrile in ammonium formate (0.1 M, pH=4.5) at 2 mL/min for 4 min. The enriched radioactivity in the short capture column was reverse flowed into an analytical C18 column with 60% acetonitrile and 40% ammonium formate (0.1 M, pH=4.5) at a flow rate of 1.0 mL/min for 25 min.
The radioactive peak B is the parental [^18F]TZ83-41 tracer with retention time of 14.3 min; one radiometabolite is peak A at 6.8 min (FIG. 2A and FIG. 2B).

Chain of AD brain tissue (P05067 whole entry): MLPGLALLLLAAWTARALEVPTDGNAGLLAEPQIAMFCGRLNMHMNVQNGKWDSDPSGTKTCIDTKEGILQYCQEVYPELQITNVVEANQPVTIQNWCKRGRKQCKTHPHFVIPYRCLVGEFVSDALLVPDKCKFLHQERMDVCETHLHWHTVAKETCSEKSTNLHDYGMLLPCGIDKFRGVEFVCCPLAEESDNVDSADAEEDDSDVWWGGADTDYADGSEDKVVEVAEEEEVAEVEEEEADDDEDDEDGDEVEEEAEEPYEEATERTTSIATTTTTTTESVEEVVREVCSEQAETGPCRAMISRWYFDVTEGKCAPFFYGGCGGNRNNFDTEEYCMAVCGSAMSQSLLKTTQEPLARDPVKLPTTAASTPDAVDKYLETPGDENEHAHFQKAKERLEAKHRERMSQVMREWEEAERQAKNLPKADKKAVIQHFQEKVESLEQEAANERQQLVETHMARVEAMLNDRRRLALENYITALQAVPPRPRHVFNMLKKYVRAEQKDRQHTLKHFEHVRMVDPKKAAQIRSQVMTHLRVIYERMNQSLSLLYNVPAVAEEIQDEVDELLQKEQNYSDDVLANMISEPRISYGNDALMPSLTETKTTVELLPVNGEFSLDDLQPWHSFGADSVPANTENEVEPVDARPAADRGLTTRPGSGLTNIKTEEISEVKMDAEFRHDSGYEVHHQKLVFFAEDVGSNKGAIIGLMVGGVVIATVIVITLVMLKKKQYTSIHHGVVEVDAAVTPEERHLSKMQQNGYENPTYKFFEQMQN

CCCOc1ccc(Nc2ccc3cc(OCCF)ccc3n2)cn1 [TZ83-41]
Ki [1]: 362 ± 372 nM | max % Inh_PiB [1]: 40% | Ki [2]: 12.5 nM | max % inh_site9 [2]: 60%

COc1ccc2nc(Nc3cc(-c4ccccc4)n[nH]3)ccc2c1 [TZ88-5]
Ki [1]: 7.1 ± 10.5 nM | max % Inh_PiB [1]: 100% | Ki [2]: 55.6 nM | max % inh_site9 [2]: 40%

COc1ccc2c(c1)CCC(Nc1cc(C)n[nH]1)=N2 [TZ88-7]
Ki [1]: 90 ± 155 nM | max % Inh_PiB [1]: 90% | Ki (nM), in a-syn fibrils v.s. [3H]BF2846 [2]: None

COc1ccc2nc(Nc3ccc(-n4cccn4)nc3)ccc2c1 [TZ88-11]
Ki [1]: 46 ± 78 nM | max % Inh_PiB [1]: 70% | Ki (nM), in a-syn fibrils v.s. [3H]BF2846 [2]: None

COc1ccc2nc(Nc3ccc(N4CCOCC4)nc3)ccc2c1 [TZ88-18]
Ki [1]: 1.6 ± 0.6 nM | max % Inh_PiB [1]: 100% | Ki (nM), in a-syn fibrils v.s. [3H]BF2846 [2]: None

COc1ccc2nc(Nc3ccc4cn[nH]c4c3)ccc2c1 [TZ88-21]
Ki [1]: 5.8 ± 4.3 nM | max % Inh_PiB [1]: 100% | Ki (nM), in a-syn fibrils v.s. [3H]BF2846 [2]: None

COc1ccc2nc(Nc3ccc(NC(C)=O)nc3)ccc2c1 [TZ88-27]
Ki [1]: > 1000 nM | Ki (nM), in a-syn fibrils v.s. [3H]BF2846 [2]: None

COc1ccc(Nc2ccc3cc(OCCF)ccc3n2)cn1 [TZ90-3]
Ki [1]: 10.8 ± 8.3 nM | max % Inh_PiB [1]: 100% | Ki [2]: 34 ± 75.3 nM

COc1ccc2cc(Nc3ccc(OC)nc3)ncc2c1 [TZ90-4]
Ki [1]: 3.1 ± 2.3 nM | max % Inh_PiB [1]: 100% | Ki [2]: 46.2 ± 39.2 nM | max % inh_site9 [2]: Shallow

COc1ccc(Nc2ccc3cc(OC)ccc3n2)cc1 [TZ90-8]
Ki [1]: 2 ± 2.6 nM | max % Inh_PiB [1]: 100% | max % inh_site9 [2]: Shallow

COc1ccc2nc(/C=C/c3nc4ccc(OC)cc4s3)ccc2c1 [TZ90-21]
Ki [1]: 0.19 nM | max % Inh_PiB [1]: 30% | Ki [2]: 129 ± 77 nM

COc1ccc(Nc2ccc3cc(OC/C=C/C[18F])ccc3n2)cn1 [[^18F]TZ80-156]
crossing of the blood brain barrier [3]: crossed the blood brain barrier | brain standardized uptake value (SUV) maximum [3]: ~2.0 | washout from the NHP brain [3]: favorable washout rate; also recorded: favorable washout kinetics | bone uptake ([4]; 5 min): 0.45 | brain uptake ([4]; 5 min): 0.86 % ID/gram | bone uptake ([4]; 30 min): 2.18 | brain uptake ([4]; 30 min): 0.25 % ID/gram | brain uptake ([4]; 60 min): 0.16 % ID/gram | bone uptake ([4]; 120 min): 3.09 | defluorination ([4]; judged from bone uptake): Significant defluorination | binding to Alzheimer's disease brain tissue homogenate [5]: little to no binding | Kd [6]: 35 nM | brain uptake in PET study [7]: found uptake

CCCOc1ccc(Nc2ccc3cc(OCC[18F])ccc3n2)cn1 [[^18F]TZ83-41]
crossing of the blood brain barrier [3]: crossed the blood brain barrier | brain standardized uptake value (SUV) maximum [3]: ~2.0 | washout from the NHP brain [3]: favorable washout rate; also recorded: favorable washout kinetics; also recorded: suitable brain washout pharmacokinetics | brain uptake (in words) ([3]; nonhuman primate brain imaging): high brain uptake | brain uptake ([4]; from 5 to 120 min): 0.71˜0.24 % ID/gram | Peak B (%) (parental tracer) ([8]; 5 min post-injection): 92% | Peak B (%) (parental tracer) ([8]; 15 min post-injection): 69% | Peak B (%) (parental tracer) ([8]; 30 min post-injection): 59% | Peak B (%) (parental tracer) ([8]; 60 min post-injection): 47% | Peak B (%) (parental tracer) ([8]; 90 min post-injection): 38% | lipophilic radiometabolite entering the brain ([8]; nonhuman primate plasma samples post injection): no lipophilic radiometabolite | binding to Alzheimer's disease brain tissue homogenate [5]: little to no binding | Kd [6]: 7.6 nM | brain uptake in PET study [7]: found uptake
